{"source": "patent US20090111781A1", "about": "“Use of Cymipristone Type Compounds in Aids Treatment” (SHANGHAI THREE-ALLIANCE BIOTECHNOLOGIES CO., LTD., priority 2005, published 2009)", "key": {"[1]": {"biological_target": "T1, mineralocorticoid receptor (MR) (Homo sapiens, UniProt P08235)", "T1 sequence (P08235 1-984)": "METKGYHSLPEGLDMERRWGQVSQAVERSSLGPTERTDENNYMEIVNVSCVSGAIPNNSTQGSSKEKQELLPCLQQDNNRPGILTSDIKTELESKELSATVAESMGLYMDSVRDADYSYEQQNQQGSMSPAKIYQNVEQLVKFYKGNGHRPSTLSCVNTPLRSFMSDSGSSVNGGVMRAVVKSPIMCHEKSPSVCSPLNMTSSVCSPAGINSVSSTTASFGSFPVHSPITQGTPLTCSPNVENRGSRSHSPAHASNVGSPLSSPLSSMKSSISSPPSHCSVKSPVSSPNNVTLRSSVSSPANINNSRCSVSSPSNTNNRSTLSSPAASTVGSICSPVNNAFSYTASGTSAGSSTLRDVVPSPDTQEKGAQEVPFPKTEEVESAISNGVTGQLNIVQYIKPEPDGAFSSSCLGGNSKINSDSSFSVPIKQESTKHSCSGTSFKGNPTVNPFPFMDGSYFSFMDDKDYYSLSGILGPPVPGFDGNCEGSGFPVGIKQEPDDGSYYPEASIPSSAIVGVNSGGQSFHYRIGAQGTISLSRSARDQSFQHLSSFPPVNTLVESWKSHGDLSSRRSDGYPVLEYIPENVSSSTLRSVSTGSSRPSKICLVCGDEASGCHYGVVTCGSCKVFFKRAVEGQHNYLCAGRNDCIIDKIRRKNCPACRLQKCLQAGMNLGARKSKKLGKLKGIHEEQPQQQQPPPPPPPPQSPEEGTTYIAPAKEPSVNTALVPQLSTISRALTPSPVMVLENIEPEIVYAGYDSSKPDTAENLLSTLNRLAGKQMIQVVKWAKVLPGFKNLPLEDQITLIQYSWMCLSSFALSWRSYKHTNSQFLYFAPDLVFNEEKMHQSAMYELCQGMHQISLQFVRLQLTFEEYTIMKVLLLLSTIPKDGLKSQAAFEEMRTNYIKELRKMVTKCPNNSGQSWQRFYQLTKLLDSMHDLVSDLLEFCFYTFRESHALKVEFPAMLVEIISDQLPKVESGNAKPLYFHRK", "experiment": "Binding activity on human nuclear receptor MR", "conditions": "n = 4", "method": "Buffer solution is composed of 25 mM NaPO4, 20 mM NaMoO4, 10 mM KF and 10% glycerol (pH=7.3) and stored under 4° C. Stock solution is prepared with CHAPS and DTT and stored under −20° C. […] Add 2.5 μl/hole into 96-pore plate. Take out appropriate amount of buffer solution reserve into solution to make the final concentration of CHAPS and DDT to become 0.25 mM and 2 mM respectively. Add protease inhibitors (aprotinin and leupeptin) to make its final concentration to become 1 μg/μl, and place in an ice bath. After adding human nuclear receptor GR (1:8), PR (1:100), ER (1:2000), AR (1:200) and MR (1:40) into the reaction system respectively, adequately mix suitable quantity of [^3H]-dexamethasone, [^3H]-progesterone, [^3H]-estradiol and [^3H]-DHT (from Amersham), rapidly add into 96-pore plate (100 μl/pore) and incubate overnight under 4° C. On the next day, add 25 μl of hydroxyapatite suspension into each pore and mix with shaking. After incubating for 10 min, separate by centrifuge for 3 min at 2500 rpm. The precipitate is washed with 100 μl of buffer solution and separated by centrifuge twice. Add 150 μl of scintillation solution (from Perkin Elmer) into each pore, mix with shaking and count by MicroBeta counter."}, "[2]": {"system": "HIV-1 AZT-sensitive strain 018a P24 antigen", "experiment": "Inhibition of HIV-1 018a P24 antigen in PBMC cell culture", "format": "cell-based", "conditions": "for EC50: Human immunodeficiency virus 1, PBMC, 2 h, administration after adsorbing 2 hours", "method": "(§1) Collect cells with curette, infect cells with 10^−2 AZT sensitive (018a) or AZT resistant (018c) virus strain liquid, and adsorb for 2 hours, Wash off unabsorbed virus with 1640 culture medium without serum, prepare cells infected by virus to 1×10^6/ml with culture solution, and inoculate on 96-pore culture plate, 100 μl/pore. […] Set cell control group and virus infected cell control group. Incubate under 37° C. and 5% CO2. On the fourth day (96 hours), pipette out the supernatant liquid and store under −20° C. for determination of HIV-1 P24 antigen titer and calculation of drug inhibitory action. Add MTT staining to cells for determination of cytotoxicity. Determination of cytotoxicity by MTT staining: Add 10 μl of 5 mg/ml MTT stain into each pore, continue to incubate under 37° C., 5% CO2 and saturated humidity for 4 hours. […] Determine the HIV-1 P24 antigen titer according to the operation procedure provided by the HIV-1 P24 antigen reagent kit. Compare the drug-added group with virus control group. […] Calculation method of 50% toxic concentration (CC50), 50% effective concentration (EC50) and selection index (SI):\n(3) Calculation Method of Selection Index (SI) on HIV-1 P24 Antigen in Cell Culture SI=CC50/EC50"}, "MT-4 cells": {"system": "MT-4 cells", "experiment": "Cytotoxicity in MT-4 cell culture by MTT staining method", "format": "cell-based, human", "method": "Set virus TCID50 determination group and cell control group. Each concentration is duplicated in two pore. Incubate under 37° C., 5% CO2 and saturated humidity in an incubator. Add MTT into each pore of cell culture plate pipetted supernatant liquid to stain, continue to incubate for 4 hours, add decolorizing liquid, determine OD value at 570 nm wavelength by enzyme-linked apparatus, and [NT]50 and TC0 as above. […] [formula]"}, "[3]": {"experiment": "MTT toxicity on PBMC infected by HIV-1 AZT-resistant strain 018c", "conditions": "human", "method": "as §1, with “(SI): […]” for “(SI):”"}}, "note": "pIC50: −log10 of the molar value.", "data": [{"smiles": "CC#C[C@]1(O)CC[C@H]2[C@@H]3CCC4=CC(=O)CCC4=C3[C@@H](c3ccc(N(C)C4CCCCC4)cc3)C[C@@]21C", "note": "[Cymipristone, 11β-[4-(N-methyl-N-cyclohexylamino)phenyl]-17α-(1-propynyl)-17β-hydroxyl-4,9-estradiene-3-one]", "values": [{"measurement": "pIC50", "setting": "[1]", "value": "< 5.70"}, {"measurement": "EC50", "setting": "[2]; Average, PBMC", "value": 12.4, "unit": "µg/mL"}, {"measurement": "EC50", "setting": "[2]; Experiment 1, PBMC", "value": 12.5, "unit": "µg/mL"}, {"measurement": "EC50", "setting": "[2]; Experiment 2, PBMC", "value": 12.2, "unit": "µg/mL"}, {"measurement": "SI", "setting": "[2]; SI=CC50/EC50, Average", "value": 10.53}, {"measurement": "SI", "setting": "[2]; SI=CC50/EC50, Experiment 1", "value": 8.30}, {"measurement": "SI", "setting": "[2]; SI=CC50/EC50, Experiment 2", "value": 12.76}, {"measurement": "Cytotoxicity TC50, MTT", "setting": "MT-4 cells; MT-4 cell culture, MTT staining", "value": 30.26, "unit": "µg/mL"}, {"measurement": "Toxicity on cultured human T-lymphocyte MT-4 (in words)", "setting": "MT-4 cells; conclusion", "value": "no significant toxicity"}, {"measurement": "CC50 at 96 h", "setting": "[3]; 50% toxic concentration CC50, Experiment 1", "value": 103, "unit": "µg/mL"}, {"measurement": "CC50 at 96 h", "setting": "[3]; 50% toxic concentration CC50, Experiment 2", "value": 104, "unit": "µg/mL"}]}]}
